Source: paper PMC5387716, “Discovery of monocarbonyl curcumin-BTP hybrids as STAT3 inhibitors for drug-sensitive and drug-resistant breast cancer therapy” (Scientific Reports, 2017)

Experiments:
Assay type in all cases: cell-based, human
MCF-10A cells = assay: MTT anti-proliferative assay, MCF-10A; conditions: 48 h, normal breast epithelial cells, Table 2 prints no unit, μM
Protocol: (§1) All cell lines were purchased from Cell Bank of Shanghai Institute of Biochemistry and Cell Biology, Chinese Academy of Sciences (Shanghai, China). Human breast carcinoma cells (MCF-7 and MCF-7/DOX), breast epithelial cells (MCF-10A) and normal human liver cells (LO2) were maintained in RPMI-1640 medium. All cells were supplemented with 12% fetal bovine serum containing 50 μg/ml penicillin and 50 μg/ml streptomycin. Cells were grown to 80% confluency in a tissue culture flask at 37 °C in a humidified atmosphere containing 5% CO2, and then were trypsinized with 1 × Trypsin-Versene and split. The MCF-7/DOX cell line we used was established from its parental cell line MCF-7 cell by gradually increasing the concentration of DOX to which the cells were exposed in a stepwise manner over a period of 8 months. […] The cells were incubated in drug-free medium for at least 1 week before use.
(§2) Cells (MCF-7, MCF-7/DOX, MCF-10A, LO2) were seeded in 96-well plates at a density of 3,000–6,000 cells per well. The cells were incubated overnight (16 h) in a humidified 5% CO2 incubator at 37 °C. After media removal, different concentrations of test compounds were added in triplicate to the plates in 200 μL of fresh media and were incubated with the cells at 37 °C for 48 h. […] Cell viability was evaluated using 3-(4, 5-dimethylthiazolyl)-2,5-diphenyltetrazoliumbromide (MTT). The absorbance was read by an ELISA reader (SpectraMax Plus384, Molecular Devices, Sunnyvale, CA) at a test wavelength of 570 nm and a reference wavelength of 630 nm. Cell viability was calculated using the following formula: […]

Cyclin D1 gene = assay: Quantitative real-time RT-PCR of Cyclin D1; conditions: 24 h
Protocol: Levels of mRNA expression were analyzed with the RT-PCR assay, with total RNA isolated from MCF-7 or MCF-7/DOX cells using an EASYspin Plus tissue/cell RNA extraction kit (Aidlab Biotechnologies Co. Ltd). RNA was quantified by measuring absorption at 260 nm and 1 μg of RNA was reverse transcribed to cDNA using the Transcriptor First Strand cDNA Synthesis Kit (Roche Diagnostics, Basel, Switzerland). Thermal cycling conditions included 95 °C initial denaturation for 5 min, followed by 40 cycles of denaturation (10 s at 95 °C), annealing (15 s at 60 °C) and extension (15 s at 72 °C with a single fluorescence measurement), a melt curve program (60–95 °C with a 0.11 °C/s heat increase and continuous fluorescence measurement) and a cooling step to 40 °C. The Δ cycle threshold method was used for the calculation of relative differences in mRNA abundance with a LightCycler 480 (Roche Molecular Biochemicals, Mannheim, Germany). The data were normalized to the expression of GAPDH. The results were expressed as fold-changes. The RT-PCR primers that were used in this study are listed in the supporting information.

MCF-7/DOX cells [1] = assay: Annexin V-APC/7-AAD flow cytometry of apoptosis, MCF-7/DOX; conditions: 24 h
Protocol: MCF-7, MCF-7/DOX or MCF-10A cells, at a density of 2.5 × 10^5 cells per well, were cultured in regular growth medium in 6-well plates for 24 h and treated in duplicate with different concentrations of 6b or curcumin for 24 h. The cells were harvested, washed and stained with 5 μL of Annexin V-APC and 5 μL of 7-AAD at room temperature for 15 min. Cells were then analyzed by flow cytometry (488 nm excitation and 600 nm emission filters) using a BD FACSCalibur flow cytometer (Becton & Dickinson Company, Franklin Lakes, NJ).

MCF-7 cells = assay: Colony survival assay, MCF-7; conditions: 24 h treatment, 14 d culture
Protocol: MCF-7 or MCF-7/DOX cells were cultured a 6-well plate at a density of 800–1,000 cells/well with regular growth medium. Cells were treated for 24 h with the vehicle and 6b at 0.15–1 μM on the following day. Cells were allowed to grow for 10–14 d until colonies were visible. Crystal violet solution (Sigma, St. Louis, MO, USA) was used to stain the colonies for 4 hours and colonies were imaged.

MCF-7/DOX cells [2] = assay: MTT anti-proliferative assay, MCF-7/DOX; conditions: Homo sapiens, MCF7-DOX; MTT, 48 h; read-out: MCF-7/DOX IC50 ± SD
Protocol: as §1, §2

With `COc1ccc(/C=C/C(=O)N2CCN(C(=O)C3=Cc4cc(Br)ccc4S3(=O)=O)CC2)cc1` [Compound 6b, (E)-1-(4-(5-bromo-1,1-dioxidobenzo[b]thiophene-2-carbonyl)piperazin-1-yl)-3-(4-methoxyphenyl)prop-2-en-1-one] the IC50 (MCF-10A cells) was 7.72 ± 0.56 µM, the IC50 (MCF-10A cells; Homo sapiens, MCF-10A) was 7.7 µM and the “decrease in the gene expression level of Cyclin D1” value (from here on “decrease”) (Cyclin D1 gene; MCF-7/DOX cells, 1.0 μM) was 18.5%. For the same compound, the “decrease” value (Cyclin D1 gene; MCF-7/DOX cells, 2.0 μM) was 51.0%, the “decrease” value (Cyclin D1 gene; MCF-7/DOX cells, 4.0 μM) was 75.0% and the “Cyclin D1 gene level (in words)” value (Cyclin D1 gene; MCF-7 and MCF-7/DOX cells) was “decreased in a dose-dependent manner”. The “decrease” value (Cyclin D1 gene; MCF-7 cells, 1.0 μM) was 16.0%, the “decrease” value (Cyclin D1 gene; MCF-7 cells, 2.0 μM) was 28.4% and the “decrease” value (Cyclin D1 gene; MCF-7 cells, 4.0 μM) was 45.5%. The apoptosis rate (MCF-7/DOX cells [1]; 1 μM) was 18.5%, the apoptosis rate (MCF-7/DOX cells [1]; 2 μM) was 50.1% and the apoptosis rate (MCF-7/DOX cells [1]; 4 μM) was 66.4%. The “clonogenic ability / colony formation” value (MCF-7 cells; MCF-7, 0.25 μM) was “significant reduction in clonogenic ability”, the “clonogenic ability / colony formation” value (MCF-7 cells; MCF-7, 0.5 μM) was “almost a cessation of colony formation” and the IC50 (MCF-7/DOX cells [2]) was 0.4 ± 0.01 µM.
